US20250340552A1, “COMPOUNDS, COMPOSITIONS AND METHODS OF TREATING DISORDERS” (HOTSPOT THERAPEUTICS, INC., priority 2022, published 2025)
Read-outs that look alike come from different tables or passages of the source.

Biological target: T1, Cbl-B (Homo sapiens, UniProt Q13191)
T1 construct: MSD-Based Assay for Degradation of Cbl-B in THP-1 Cells; endogenous in cells; host or cells: THP-1 (title) / Jurkat (protocol text)
Test: MSD-based assay for degradation of Cbl-B in THP-1 cells
Format: cell-based
Outline: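 THP-1 cells were treated with compound for 24 h at 37 °C. Cbl-B in lysates was quantified by MSD sandwich immunoassay, with anti-Cbl-B capture antibody at 1 ug/mL and SULFO-TAG anti-rabbit detection. Maximal degradation (Dmax) was binned as A >70%, B 50–70%, C 30–50%, D <30%.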

[1] = Cbl-B degradation, Jurkat cells seeded (heading: THP-1 cells), 24 hours incubation, MSD readout
[2] = Cbl-B degradation, Jurkat cells seeded (heading: THP-1 cells), 24 hours incubation, MSD readout, read-out: Dmax

T1 sequence (Q13191 whole entry): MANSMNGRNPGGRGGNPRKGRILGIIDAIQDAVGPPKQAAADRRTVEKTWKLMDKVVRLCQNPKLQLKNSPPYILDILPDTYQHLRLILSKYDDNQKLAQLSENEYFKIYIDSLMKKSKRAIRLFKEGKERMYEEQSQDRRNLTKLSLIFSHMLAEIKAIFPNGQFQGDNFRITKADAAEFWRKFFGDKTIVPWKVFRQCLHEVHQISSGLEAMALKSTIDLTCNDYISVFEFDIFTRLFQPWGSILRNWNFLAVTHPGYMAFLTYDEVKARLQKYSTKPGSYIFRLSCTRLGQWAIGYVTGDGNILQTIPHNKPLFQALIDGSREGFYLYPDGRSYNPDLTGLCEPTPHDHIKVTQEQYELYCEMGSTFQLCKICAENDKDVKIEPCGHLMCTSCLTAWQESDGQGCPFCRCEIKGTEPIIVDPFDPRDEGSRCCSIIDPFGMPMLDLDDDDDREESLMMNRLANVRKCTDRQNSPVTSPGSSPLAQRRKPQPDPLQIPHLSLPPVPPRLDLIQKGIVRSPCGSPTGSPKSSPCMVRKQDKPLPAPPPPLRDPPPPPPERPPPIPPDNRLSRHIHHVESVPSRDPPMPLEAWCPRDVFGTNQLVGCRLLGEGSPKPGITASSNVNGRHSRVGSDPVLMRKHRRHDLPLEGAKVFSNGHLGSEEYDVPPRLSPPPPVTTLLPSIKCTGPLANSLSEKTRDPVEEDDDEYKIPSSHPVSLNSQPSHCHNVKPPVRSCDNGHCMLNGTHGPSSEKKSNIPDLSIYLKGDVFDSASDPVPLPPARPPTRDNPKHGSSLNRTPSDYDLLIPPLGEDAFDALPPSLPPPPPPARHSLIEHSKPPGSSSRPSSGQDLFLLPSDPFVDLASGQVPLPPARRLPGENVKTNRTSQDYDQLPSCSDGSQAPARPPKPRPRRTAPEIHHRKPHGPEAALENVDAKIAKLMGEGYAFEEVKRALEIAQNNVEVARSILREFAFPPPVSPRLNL

Row | Structure (SMILES) | DC50 [1] [nM] | Dmax [2] [%] | Dmax (THP-1) [%]
1 | Cn1cnnc1[C@@H](c1cccc(-n2cc3c(C(F)(F)F)cc(CN4CCC(OCCN5CCN(CC6CCN(c7ccc8c(c7)CN([C@@H]7CCC(=O)NC7=O)C8=O)CC6)CC5)CC4)cn3c2=O)c1)C1CCC1 (single isomer, unassigned) [Compound 79] | 1000 to 10000 | 30 to 50 | –
2 | CN(CCO[C@H]1CCCN(Cc2cc(C(F)(F)F)c3cn(-c4cccc([C@H](c5nncn5C)C5CCC5)c4)c(=O)n3c2)C1)C(=O)c1ccc(N2CCN(c3ccc4c(c3)CN([C@@H]3CCC(=O)NC3=O)C4=O)CC2)cc1 (single isomer, unassigned) [Compound 105] | 30 to 300 | – | –
3 | Cn1cnnc1[C@@H](c1cccc(-n2cc3c(C(F)(F)F)cc(CN4CCC(OCCOCc5ccc(CC6CCN(c7ccc8c(c7)CN([C@H]7CCC(=O)NC7=O)C8=O)CC6)cc5)CC4)cn3c2=O)c1)C1CCC1 (single isomer, unassigned) [Compound 174] | < 30 | > 70 | –
4 | Cn1cnnc1CC1(c2cccc(-n3cc4c(C(F)(F)F)cc(CN5CCN(CCN6CCC(CN7CCN(c8ccc9c(c8)CN([C@@H]8CCC(=O)NC8=O)C9=O)CC7)CC6)CC5)cn4c3=O)c2)COC1 (single isomer, unassigned) [Compound 61] | 30 to 300 | – | 50 to 70
5 | Cn1cnnc1[C@@H](c1cccc(N2Cc3c(cc(CN4CCC(OCCN5CCC(CN6CCN(c7ccc8c(c7)CN([C@@H]7CCC(=O)NC7=O)C8=O)CC6)CC5)CC4)cc3C(F)(F)F)C2=O)c1)C1CCC1 [Compound 65] | 300 to 1000 | 50 to 70 | –
6 | CN(CCN(C)C(=O)c1cc(C(F)(F)F)c2cn(-c3cccc([C@H](c4nncn4C)C4CCC4)c3)c(=O)n2c1)C(=O)c1ccc(N2CCN(c3ccc4c(c3)CN([C@H]3CCC(=O)NC3=O)C4=O)CC2)cc1 (single isomer, unassigned) [Compound 142] | > 10000 | 30 to 50 | –
7 | CN(C(=O)c1ccc(CN2CCN(c3ccc4c(c3)CN([C@@H]3CCC(=O)NC3=O)C4=O)CC2)cc1)C1CCN(Cc2cc(C(F)(F)F)c3cn(-c4cccc([C@H](c5nncn5C)C5CCC5)c4)c(=O)n3c2)CC1 [Compound 159] | > 10000 | – | < 30
8 | Cn1cnnc1CC1(c2cccc(-n3cc4c(C(F)(F)F)cc(CN5CCN(CC(=O)N6CCC(CN7CCN(c8ccc9c(c8)CN([C@H]8CCC(=O)NC8=O)C9=O)CC7)CC6)CC5)cn4c3=O)c2)COC1 (single isomer, unassigned) [Compound 134] | < 30 | > 70 | –
9 | Cn1cnnc1[C@@H](c1cccc(-n2cc3c(C(F)(F)F)cc(CN4CCC(OCCN5CCC(CN6CCN(c7ccc8c(c7)CN([C@H]7CCC(=O)NC7=O)C8=O)CC6)CC5)CC4)cn3c2=O)c1)C1COC1 [Compound 58] | 30 to 300 | > 70 | –
10 | Cn1cnnc1CC1(c2cccc(-n3cc4c(C(F)(F)F)cc(CN5CCC(CC(=O)N6CCC(CN7CCN(c8ccc9c(c8)CN([C@H]8CCC(=O)NC8=O)C9=O)CC7)CC6)CC5)cn4c3=O)c2)COC1 [Compound 256] | < 30 | – | > 70
11 | Cn1cnnc1[C@@H](c1cccc(-n2cc3c(C(F)(F)F)cc(CN4CCC[C@@H](OC5CCN(C(=O)c6ccc(N7CCN(c8ccc9c(c8)CN([C@H]8CCC(=O)NC8=O)C9=O)CC7)cc6)CC5)C4)cn3c2=O)c1)C1CCC1 (single isomer, unassigned) [Compound 172] | < 30 | > 70 | –
12 | CN(CCOC1CCN(Cc2cc(C(F)(F)F)c3cn(-c4cccc([C@H](c5nncn5C)C5CCC5)c4)c(=O)n3c2)CC1)C(=O)c1ccc(N2CCN(c3cccc4c3C(=O)N(C3CCC(=O)NC3=O)C4=O)CC2)cc1 (stereo partly drawn) [Compound 33] | > 10000 | < 30 | –
13 | CN(CC1CCN(Cc2cc(C(F)(F)F)c3cn(-c4cccc(C5(Cc6nncn6C)COC5)c4)c(=O)n3c2)CC1)C(=O)c1ccc(C2CCN(c3ccc4c(c3)CN([C@H]3CCC(=O)NC3=O)C4=O)CC2)cc1 [Compound 242] | < 30 | > 70 | –
14 | Cn1cnnc1[C@@H](c1cccc(-n2cc3c(C(F)(F)F)cc(CN4CCN(CC(=O)N5CCC(CN6CCN(c7ccc8c(c7)CN([C@H]7CCC(=O)NC7=O)C8=O)CC6)CC5)CC4)cn3c2=O)c1)C1CCC1 (single isomer, unassigned) [Compound 122] | < 30 | > 70 | –
15 | CO[C@H]1C[C@](c2cccc(-n3cc4c(C(F)(F)F)cc(CN5CCC(COCc6ccc(CN7CCN(c8ccc9c(c8)CN([C@@H]8CCC(=O)NC8=O)C9=O)CC7)cc6)CC5)cn4c3=O)c2)(c2nncn2C)C1 [Compound 223] | 30 to 300 | 30 to 50 | –
16 | Cn1cnnc1[C@@H](c1cccc(-n2cc3c(C(F)(F)F)cc(CN4CCC(CC(=O)N5CCC(CN6CCN(c7ccc8c(c7)CN([C@H]7CCC(=O)NC7=O)C8=O)CC6)CC5)CC4)cn3c2=O)c1)C1CCC1 (single isomer, unassigned) [Compound 112] | < 30 | > 70 | –

Row | Structure (SMILES) | DC50 [1] [nM] | Dmax [2] [%] | Dmax (THP-1) [%]
17 | Cn1cnnc1[C@@H](c1cccc(-n2cc3c(C(F)(F)F)cc(CN4CCC(C(=O)N5CCC(CN6CCN(c7cc8c(cc7F)C(=O)N(C7CCC(=O)NC7=O)C8=O)CC6)CC5)CC4)cn3c2=O)c1)C1CCC1 (stereo partly drawn) [Compound 30] | > 10000 | < 30 | –
18 | Cn1cnnc1[C@@H](c1cccc(-n2cc3c(C(F)(F)F)cc(CN4CCC(C5CCN(C(=O)c6ccc(N7CCN(c8ccc9c(c8)CN([C@H]8CCC(=O)NC8=O)C9=O)CC7)cc6)CC5)CC4)cn3c2=O)c1)C1CCC1 (single isomer, unassigned) [Compound 162] | < 30 | > 70 | –
19 | Cn1cnnc1[C@@H](c1cccc(N2Cc3c(cc(CN4CCC[C@H](OCc5ccc(CC6CCN(c7ccc8c(c7)CN([C@@H]7CCC(=O)NC7=O)C8=O)CC6)cc5)C4)cc3C(F)(F)F)C2=O)c1)C1CCC1 (single isomer, unassigned) [Compound 189] | > 10000 | < 30 | –
20 | CN(CC1CCN(Cc2cc(C(F)(F)F)c3cn(-c4cccc(C5(Cc6nncn6C)COC5)c4)c(=O)n3c2)CC1)C(=O)c1ccc(C2CCN(c3ccc4c(c3)CN([C@@H]3CCC(=O)NC3=O)C4=O)CC2)cc1 [Compound 241] | < 30 | 50 to 70 | –
21 | Cn1cnnc1[C@@H](c1cccc(-n2cc3c(C(F)(F)F)cc(CN4CCC(OCc5ccc(N6CCN(c7ccc8c(c7)CN([C@H]7CCC(=O)NC7=O)C8=O)CC6)cc5)CC4)cn3c2=O)c1)C1CCC1 (single isomer, unassigned) [Compound 156] | < 30 | 50 to 70 | –
22 | Cn1cnnc1CC1(c2cccc(-n3cc4c(C(F)(F)F)cc(CN5CCN(C(=O)CN6CCC(CN7CCN(c8ccc9c(c8)CN([C@@H]8CCC(=O)NC8=O)C9=O)CC7)CC6)CC5)cn4c3=O)c2)COC1 (single isomer, unassigned) [Compound 131] | > 10000 | 30 to 50 | –
23 | Cn1cnnc1[C@@H](c1cccc(-n2cc3c(C(F)(F)F)cc(CN4CCC(OCCOCc5ccc(CN6CCN(c7ccc8c(c7)CN([C@@H]7CCC(=O)NC7=O)C8=O)CC6)cc5)CC4)cn3c2=O)c1)C1CCC1 (single isomer, unassigned) [Compound 87] | 300 to 1000 | 30 to 50 | –
24 | CN(CCOCc1cc(C(F)(F)F)c2cn(-c3cccc([C@H](c4nncn4C)C4CCC4)c3)c(=O)n2c1)C(=O)c1ccc(N2CCN(c3ccc4c(c3)CN([C@@H]3CCC(=O)NC3=O)C4=O)CC2)cc1 (single isomer, unassigned) [Compound 147] | > 10000 | < 30 | –
25 | Cn1cnnc1CC1(c2cccc(-n3cc4c(C(F)(F)F)cc(CN5CCC(CCN6CCC(CC7CCN(c8ccc9c(c8)CN([C@@H]8CCC(=O)NC8=O)C9=O)CC7)CC6)CC5)cn4c3=O)c2)COC1 (single isomer, unassigned) [Compound 259] | 30 to 300 | 50 to 70 | –
26 | Cn1cnnc1[C@@H](c1cccc(-n2cc3c(C(F)(F)F)cc(CN4CCC(OCc5ccc(CC6CCN(c7ccc8c(c7)CN([C@@H]7CCC(=O)NC7=O)C8=O)CC6)cc5)CC4)cn3c2=O)c1)C1CCC1 (single isomer, unassigned) [Compound 217] | 300 to 1000 | 30 to 50 | –
27 | Cn1cnnc1[C@@H](c1cccc(-n2cc3c(C(F)(F)F)cc(CN4CCN(CCc5ccc(N6CCN(c7ccc8c(c7)CN([C@H]7CCC(=O)NC7=O)C8=O)CC6)cc5)CC4)cn3c2=O)c1)C1CCC1 (single isomer, unassigned) [Compound 126] | < 30 | > 70 | –
28 | Cn1cnnc1[C@@H](c1cccc(-n2cc3c(C(F)(F)F)cc(CN4CCN(CCc5ccc(N6CCN(c7ccc8c(c7)CN([C@@H]7CCC(=O)NC7=O)C8=O)CC6)cc5)CC4)cn3c2=O)c1)C1CCC1 (single isomer, unassigned) [Compound 125] | 30 to 300 | 50 to 70 | –
29 | Cn1cnnc1CC1(c2cccc(-n3cc4c(C(F)(F)F)cc(CN5CCC(OCCOCc6ccc(CN7CCN(c8ccc9c(c8)CN([C@@H]8CCC(=O)NC8=O)C9=O)CC7)cc6)CC5)cn4c3=O)c2)COC1 (single isomer, unassigned) [Compound 219] | 30 to 300 | 50 to 70 | –
30 | Cn1cnnc1CC1(c2cccc(-n3cc4c(C(F)(F)F)cc(CN5CCC(OCCN6CCN(CC7CCN(c8ccc9c(c8)CN([C@H]8CCC(=O)NC8=O)C9=O)CC7)CC6)CC5)cn4c3=O)c2)COC1 (single isomer, unassigned) [Compound 78] | < 30 | 50 to 70 | –
31 | Cn1cnnc1CC1(c2cccc(-n3cc4c(C(F)(F)F)cc(CN5CCC(C6CCN(C(=O)c7ccc(N8CCN(c9ccc%10c(c9)CN([C@H]9CCC(=O)NC9=O)C%10=O)CC8)cc7)CC6)CC5)cn4c3=O)c2)COC1 [Compound 262] | < 30 | – | > 70
32 | Cn1cnnc1[C@@H](c1cccc(-n2cc3c(C(F)(F)F)cc(CN4CCC(CC(=O)N5CCC(C6CCN(c7ccc8c(c7)CN([C@@H]7CCC(=O)NC7=O)C8=O)CC6)CC5)CC4)cn3c2=O)c1)C1CCC1 (single isomer, unassigned) [Compound 177] | 300 to 1000 | 30 to 50 | –
